Experiments:
[1] = target: T1, rat nuclear androgen receptor (Rattus norvegicus, UniProt P15207); assay: Rat androgen receptor binding, [3H]-mibolerone displacement; settings: 0.01 μM up to 10 μM
T1 construct: MDS Pharma Services (Taiwan), the contract laboratory that ran the assay
T1 sequence (P15207 1-902): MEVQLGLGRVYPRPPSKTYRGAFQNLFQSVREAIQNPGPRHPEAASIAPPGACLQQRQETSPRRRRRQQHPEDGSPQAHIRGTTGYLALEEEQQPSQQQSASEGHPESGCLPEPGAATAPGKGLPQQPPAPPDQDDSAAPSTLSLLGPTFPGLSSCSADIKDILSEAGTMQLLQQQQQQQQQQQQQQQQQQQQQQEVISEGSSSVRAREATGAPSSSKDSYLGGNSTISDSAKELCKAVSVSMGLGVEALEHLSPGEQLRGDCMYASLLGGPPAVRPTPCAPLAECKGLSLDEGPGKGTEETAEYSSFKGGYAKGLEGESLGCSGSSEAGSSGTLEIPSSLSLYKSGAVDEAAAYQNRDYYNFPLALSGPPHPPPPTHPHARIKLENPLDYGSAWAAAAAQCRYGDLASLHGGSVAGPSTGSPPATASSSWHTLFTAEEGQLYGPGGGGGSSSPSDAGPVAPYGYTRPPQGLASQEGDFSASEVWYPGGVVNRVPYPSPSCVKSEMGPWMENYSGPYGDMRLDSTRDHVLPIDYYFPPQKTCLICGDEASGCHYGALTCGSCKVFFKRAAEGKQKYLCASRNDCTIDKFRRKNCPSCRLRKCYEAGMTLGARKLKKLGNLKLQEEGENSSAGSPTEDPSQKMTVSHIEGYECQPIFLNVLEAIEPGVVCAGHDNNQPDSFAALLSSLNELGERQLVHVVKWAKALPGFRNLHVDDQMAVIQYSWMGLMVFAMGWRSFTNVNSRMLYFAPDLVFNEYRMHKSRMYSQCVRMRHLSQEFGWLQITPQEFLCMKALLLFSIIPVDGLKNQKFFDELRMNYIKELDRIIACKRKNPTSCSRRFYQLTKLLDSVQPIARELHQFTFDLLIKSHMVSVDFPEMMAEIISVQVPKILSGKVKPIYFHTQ
Experimental: Rat androgen receptor binding assays were performed by MDS Pharma Services (Taiwan) as described elsewhere (Chang et al., J. Steroid Biochem. 27:123-131, 1987), incorporated herein by reference.

[2] = Cytotoxicity, MTT assay in 3T3 fibroblasts; assay type: cell-based, mouse; settings: mouse

## CC[C@@H](C(C)C)[C@H](O)[C@@H](O)[C@@H](C)[C@H]1CC[C@H]2[C@@H]3COC(=O)[C@H]4C[C@H](O)[C@H](O)C[C@]4(C)[C@H]3CC[C@]12C [Compound 1, (22S,23S,24S)-2α,3α,22,23-tetrahydroxy-24 ethyl-β-homo-7-oxo-5α-cholestane-6-one]
[1]
  binding to androgen receptor: no significant binding

## CC[C@@H](C(C)C)[C@H](O)[C@@H](O)[C@@H](C)[C@H]1CC[C@H]2[C@@H]3CC(=O)[C@H]4C[C@H](O)[C@H](O)C[C@]4(C)[C@H]3CC[C@]12C [Compound 2, (22S,23S,24S)-2α,3α, 22,23-tetrahydroxy-24-ethyl-5α-cholestan-6-one]
[2]
  IC50: > 30 µM
